Assays:
[1] = target: T1, recombinant Myc protein (full length c-Myc) (Homo sapiens, UniProt P01106); assay: competitive fluorescence polarization against 10074-G5; assay type: binding; settings: 10 µM Myc, 10 µM 10074-G5, DL78 20-60 µM, 30 min room temperature; site unproven, competitive or allosteric
T1 construct: full length recombinant protein, gift of A. Chinnaiyan

[2] = target: T2, c-Myc Micro-Tag (Myc-MicroTag) (Homo sapiens, UniProt P01106); assay: Micro-Tag thermal-shift target engagement (enzyme complementation); assay type: biochemical
T2 construct: 15-residue Micro-Tag at C-terminus; transiently expressed in HEK293; Triton X-100 lysate
T2 sequence (P01106 whole entry): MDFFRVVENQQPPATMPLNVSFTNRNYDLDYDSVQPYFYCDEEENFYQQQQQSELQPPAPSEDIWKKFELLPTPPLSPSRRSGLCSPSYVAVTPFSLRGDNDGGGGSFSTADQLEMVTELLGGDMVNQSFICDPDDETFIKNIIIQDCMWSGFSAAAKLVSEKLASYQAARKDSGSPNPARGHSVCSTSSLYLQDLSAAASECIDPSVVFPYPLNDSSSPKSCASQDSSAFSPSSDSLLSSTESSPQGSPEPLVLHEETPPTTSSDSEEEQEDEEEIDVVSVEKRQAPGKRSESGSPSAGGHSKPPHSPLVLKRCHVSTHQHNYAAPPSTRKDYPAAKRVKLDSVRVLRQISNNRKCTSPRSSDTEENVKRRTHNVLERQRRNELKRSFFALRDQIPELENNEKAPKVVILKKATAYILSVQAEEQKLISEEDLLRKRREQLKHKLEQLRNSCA

T1 sequence (P01106 whole entry): as above

Q: For `COc1ccc2oc(C(=O)c3c(C)oc4ccc(OC)cc34)cc2c1` [DL78, (5-methoxy-2-methylbenzofuran-3-yl)(5-methoxybenzofuran-2-yl)methanone], which “competitive fluorescence polarization against 10074-G5” value [1] is on record?
A: DL78 competed with 10074-G5 in a dose dependent manner

Q: And the EC50 [2]?
A: 1800 nM
